Legend:
cornified envelope (CE) = assay: Production of cornified envelope (CE) in NHEK cells; assay type: cell-based, human; details: 1 mM, 5 days, control 0.63 ± 0.07
Method: The following experiment was conducted to examine the effect of ascorbic acid 2-glucoside on the production of CE in a keratinous layer. As a model for typical normal human epidermal cells, normal human epidermal keratinocytes from neonatal foreskin, commercialized by Kurabo Industries Ltd., Osaka, Japan, and abbreviated as “NHEK cells”, hereinafter, were suspended in EpiLife medium (pH 7.4), commercialized by Invitrogen Corporation, Calif., USA, and called “EpiLife medium”, hereinafter, inoculated to 12-well microplates at a cell density of 1×10^5 cells/well, and cultured under the conditions of 37° C. and 5% v/v CO2 overnight. Thereafter, “AA2G”, a product name of a particulate composition containing anhydrous crystalline ascorbic acid 2-glucoside, commercialized by Hayashibara Co., Ltd., Okayama, Japan, was added to each well to give a final concentration of 0.5 or 1 mM, or, as a positive control, CaCl2 was added to each well to give a final concentration of 1 mM; and the cells in each well were cultured at 37° C. for five days while replacing the medium in each well with a fresh preparation of EpiLife medium having the above-identified concentration of ascorbic acid 2-glucoside or CaCl2. Assay for intracellular CE content was carried out in accordance with Tatsuya Hasegawa et al., “Lipids”, Vol. 46, pp. 529 to 535, 2011. After completion of the culture, the culture supernatant in each well was immediately removed, followed by detaching and extracting the cells adhered to the wall of each well by means of pipetting with phosphate buffered saline (PBS, pH 7.4) containing 2% w/v sodium dodecyl sulfate (SDS), and collecting insoluble fractions by centrifugation at 15,000 rpm for 10 min. […] The measured values were regarded as CE production levels. […]

occludin = assay: TJ-related protein occludin in NHEK cells (Western); assay type: cell-based, human; details: 1 mM, 3 days, CaCl2 positive control = 100%, no addition 63%
Method: (§1) The following experiment was conducted to examine the effect of ascorbic acid 2-glucoside on the production of TJ-related proteins that constitute cell-cell adhesion structures by focusing on occludin and ZO-1 that are focused on as TJ-related proteins known to exist in a granular layer of epidermis: As a model for typical normal human epidermal cells, NHEK cells were suspended in EpiLife medium (pH 7.4); inoculated to 12-well microplates at a cell density of 1×10^5 cells/well; cultured overnight under the conditions of 37° C. and 5% v/v CO2; and further cultured for three days under the conditions of 37° C. and 5% v/v CO2 after adding either CaCl2 as a positive control to each well to give a final concentration of 0.5 mM, or “AA2G”, a product name of a particulate composition containing anhydrous crystalline ascorbic acid 2-glucoside, commercialized by Hayashibara Co., Ltd., Okayama, Japan, to give a final concentration of 0.5 or 1 mM. […] A sample of 20 μg protein for each lane per each cell extract in respective wells was applied to sodium dodecyl sulfate polyacrylamide gel electrophoresis (SDS-PAGE) with 10% w/v SDS containing DTT, followed by assaying the concentration of occludin or ZO-1 in each cell extract with “Luminate Western HRP Substrates”, a product name of a premixed, ready-to-use chemiluminescent detection reagent using an internal standard “α-Tubulin”, commercialized by Merck KGaA, Darmstadt, Germany, wherein there were used “F-11”, a product name of an anti-occludin mouse monoclonal antibody, commercialized by Santa Cruz Biotechnology, Inc., Texas, USA, or “ZO1-1A12”, a product name of a ZO-1 mouse monoclonal antibody, commercialized by Invitrogen Corporation, Calif., USA, was used as a first antibody; and “PO447”, a product name of a horseradish peroxidase (HRPO) labeled anti-mouse IgG, commercialized by DAKO Japan Inc., Tokyo, Japan, or “PO448”, a product name of an HRPO-labeled anti-rabbit IgG, commercialized by DAKO Japan Inc., Tokyo, Japan, as a secondary antibody. […]

ZO-1 = assay: TJ-related protein ZO-1 in NHEK cells (Western); assay type: cell-based, human; details: 1 mM, 3 days, CaCl2 positive control = 100%, no addition 38%
Method: as §1

NHEK cells = assay: Cytotoxicity in NHEK cell culture; assay type: cell-based, human; details: EpiLife medium, 24 h
glutathione [1] = assay: Production level of glutathione in A431 cells; assay type: cell-based, human; details: 0.1 mM, 24 h, control = 100%
Method: To Dulbecco's MEM medium, containing 10% v/v calf fetal serum and an antibiotic (abbreviated as “D-MEM”, hereinafter), were added ascorbic acid 2-glucoside, a reagent grade specimen commercialized by Hayashibara Co., Ltd., Okayama, Japan, or L-ascorbic acid, a special reagent grade specimen commercialized by Wako Pure Chemical Industries, Ltd., Tokyo, Japan, […]
Continuously-cultivated A431 cells in D-MEM medium were collected, resuspended in D-MEM medium, inoculated to culture plates with 10 cm in diameter (φ) in an amount of 1×10^6 cells/10 mL/plate, and cultured for 24 hours. Thereafter, the culture supernatants were removed by sucking, and the remaining cells were added with any of the test solutions in an amount of 10 mL/plate and cultured for another 24 hours. As a control, cells were added with only D-MEM medium in an amount of 10 mL/plate and cultured for 24 hours. To each plate, which had been removed its culture supernatant, was added ice-chilled Dulbecco's PBS (−) commercialized by Nissui Pharmaceutical Co., Ltd., Tokyo, Japan, to wash cells, which were then collected with a scraper. Glutathione was quantified with “Glutathione Assay Kit”, a commercially available glutathione assay kit commercialized by BioVision, Inc., San Francisco, USA. In this experiment, the control and test solutions were respectively assayed by using three plates respectively, and the data were averaged for obtaining a glutathione production level for each plate. A5% v/v CO2 incubator was used for culturing A431 cells in any case. Relative values of test samples were determined with the proviso that the production levels of reduced glutathione and total glutathione levels in A431 cells that had been cultured with only D-MEM medium were respectively regarded as 100%, and the results are in Table 4.

A431 cells = assay: Cytotoxicity in A431 cell culture; assay type: cell-based, human; details: D-MEM medium, 24 h
B16 cells = assay: Cytotoxicity in B16 cell culture; assay type: cell-based, mouse; details: D-MEM medium, 2.0 mM, 2 h
glutathione [2] = assay: Production level of glutathione in NHEK cells; assay type: cell-based, human; details: 0.1 mM, 24 h, control = 100%
Method: Continuously-cultivated NHEK cells in EpiLife medium were collected, resuspended in EpiLife medium, inoculated to culture plates with 10 cm in diameter in an amount of 1×10^6 cells/10 mL/plate, and cultured for 24 hours. Thereafter, each culture supernatant was removed by sucking, and any of the test solutions was added to the remaining cells in a volume of 10 mL/plate, followed by culturing the cells for another 24 hours. As a control, cells were added with only D-MEM medium in an amount of 10 mL/plate and cultured for 24 hours. Each culture supernatant was removed from each plate, then ice-chilled Dulbecco's PBS (−), commercialized by Nissui Pharmaceutical Co., Ltd., Tokyo, Japan, was added to rinse the remaining cells, which were then collected with a scraper. Glutathione was quantified on “Glutathione Assay Kit”, a product name of glutathione assay kit commercialzied by BioVision, Inc., San Francisco, USA. In this experiment, the control and test solutions in respective three plates were assayed for glutathione production level for each plate and averaged for obtaining the glutathione production level of each solution. A 5% v/v CO2 incubator was used for culturing NHEK cells in any case. Relative values of test samples were determined with the proviso that the production levels of reduced glutathione and total glutathione in NHEK cells that had been cultured with only EpiLife medium were respectively regarded as 100%, and the results are in Table 5.

Compound	OD310nm Value (CE Production level) (cornified envelope (CE))	Occludin concentration in cell extract (occludin) [%]	ZO-1 Concentration in cell extract (ZO-1) [%]	cytotoxicity (NHEK cells; 0.5 mM)	upper limit concentration that does not induce cytotoxicity (NHEK cells) [mM]	Reduced glutathione (glutathione [1]) [%]	Total glutathione (glutathione [1]) [%]	cytotoxicity (A431 cells; 1.0 mM)	upper limit concentration that does not induce cytotoxicity (A431 cells) [mM]	cytotoxicity (B16 cells)	Reduced glutathione (glutathione [2]) [%]	Total glutathione (glutathione [2]) [%]
[Ca+2].[Cl-].[Cl-] [CaCl2, reference compound]	1.07 ± 0.07	100	100									
O=C1O[C@H]([C@@H](O)CO)C(O)=C1O [L-ascorbic acid]				cytotoxicity induced	0.1	103	102	cytotoxicity was induced	0.1	induced cytotoxicity	102	103
